pIC50: −log10 of the molar value.
What follows are compounds tested against T1, GPR84 (Homo sapiens, UniProt Q9NQS5) (assay: GPR84 [35S]GTPγS binding assay, HEPES buffer). Conditions: 3,3′ di indolylmethane at EC80, membranes from stable cell line over expressing GPR84.
T1 construct: expressed in transfected cells
Format: biochemical
How it was run: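 Membranes from a stable GPR84-overexpressing cell line (20 μg/well), pre-incubated with 0.1 μM GDP for 15 min at 4° C, mixed with 0.1 nM [35S]GTPγS and WGA SpA beads in 20 mM HEPES pH 7.4, 5 mM MgCl2, 250 mM NaCl, 0.05% BSA, 75 ug/mL saponin. Incubated 90 min at room temperature; scintillation proximity read after centrifugation.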

T1 sequence (Q9NQS5 whole entry): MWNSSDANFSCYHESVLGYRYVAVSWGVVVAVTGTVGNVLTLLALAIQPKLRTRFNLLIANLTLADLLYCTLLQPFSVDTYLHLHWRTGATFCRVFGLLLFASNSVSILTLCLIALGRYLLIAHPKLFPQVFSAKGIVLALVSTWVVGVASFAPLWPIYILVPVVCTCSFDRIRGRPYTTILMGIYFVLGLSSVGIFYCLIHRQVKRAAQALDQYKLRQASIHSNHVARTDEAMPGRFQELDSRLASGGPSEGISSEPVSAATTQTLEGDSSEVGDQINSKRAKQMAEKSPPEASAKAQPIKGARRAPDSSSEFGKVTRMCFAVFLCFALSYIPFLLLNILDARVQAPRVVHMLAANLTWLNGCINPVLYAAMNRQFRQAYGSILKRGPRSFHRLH

Row | SMILES | pIC50
1 | COC(=O)c1ccc(COc2ccc3c(c2)CCn2c-3cc(OCC3CCCO3)nc2=O)cc1 (stereo not drawn) [compound 26, 4-[4-oxo-2-(tetrahydro-furan-2-ylmethoxy)-6,7-dihydro-4H-pyrimido[6,1-a]isoquinolin-9-yloxymethyl]-benzoic acid methyl ester] | 6.30 to 7.00
2 | O=c1nc(OCC2COc3ncccc3O2)cc2n1CCc1cc(-c3ccncc3)ccc1-2 (stereo not drawn) [compound 97, 2-(2,3-dihydro-[1,4]dioxino[2,3-b]pyridin-2-ylmethoxy)-9-pyridin-4-yl-6,7-dihydro-pyrimido[6,1-a]isoquinolin-4-one] | 7.00 to 11.00
3 | O=c1nc(OCC2CCCO2)cc2n1CCc1cc(OCc3ccccn3)ccc1-2 (stereo not drawn) [compound 14, 9-(pyridin-2-ylmethoxy)-2-(tetrahydro-furan-2-ylmethoxy)-6,7-dihydro-pyrimido[6,1-a]isoquinolin-4-one] | 6.30 to 7.00
4 | O=c1nc(OCC2COc3ncccc3O2)cc2n1CCc1cc(OCCN3CCOCC3)ccc1-2 (stereo not drawn) [compound 90, 2-(2,3-dihydro-[1,4]dioxino[2,3-b]pyridin-2-ylmethoxy)-9-(2-morpholin-4-yl-ethoxy)-6,7-dihydro-pyrimido[6,1-a]isoquinolin-4-one] | 6.30 to 7.00
5 | O=c1nc(OCC2CCCO2)cc2n1CCc1cc(OCc3ccc(F)cc3)ccc1-2 (stereo not drawn) [compound 24, 9-(4-fluoro-benzyloxy)-2-(tetrahydro-furan-2-ylmethoxy)-6,7-dihydro-pyrimido[6,1-a]isoquinolin-4-one] | 6.30 to 7.00
6 | O=C(O)c1cccc(-c2ccc3c(c2)CCn2c-3cc(OCC3CCCO3)nc2=O)c1 (stereo not drawn) [compound 103, 3-[4-oxo-2-(tetrahydro-furan-2-ylmethoxy)-6,7-dihydro-4H-pyrimido[6,1-a]isoquinolin-9-yl]-benzoic acid] | 6.00 to 6.30
7 | O=c1nc(OCC2CCCO2)cc2n1CCc1cc(OCc3ccncc3)ccc1-2 (stereo not drawn) [compound 13, 9-(pyridin-4-ylmethoxy)-2-(tetrahydro-furan-2-ylmethoxy)-6,7-dihydro-pyrimido[6,1-a]isoquinolin-4-one] | 6.30 to 7.00
8 | O=c1nc(OCC2CCCO2)cc2n1CCc1cc(OCc3cccc(-c4ccoc4)n3)ccc1-2 (stereo not drawn) [compound 56, 9-(6-furan-3-yl-pyridin-2-ylmethoxy)-2-(tetrahydro-furan-2-ylmethoxy)-6,7-dihydro-pyrimido[6,1-a]isoquinolin-4-one] | 7.00 to 11.00
9 | O=c1nc(OCC2CCCO2)cc2n1CCc1cc(OCc3ccc(Cl)cc3)ccc1-2 (stereo not drawn) [compound 21, 9-(4-chloro-benzyloxy)-2-(tetrahydro-furan-2-ylmethoxy)-6,7-dihydro-pyrimido[6,1-a]isoquinolin-4-one] | 7.00 to 11.00

Next, values leading:

Row | pIC50 | SMILES
10 | 7.00 to 11.00 | NC(=O)NCC#Cc1ccc2c(c1)CCn1c-2cc(OCC2COc3ncccc3O2)nc1=O (stereo not drawn) [compound 175, {3-[2-(2,3-Dihydro-[1,4]dioxino[2,3-b]pyridin-2-ylmethoxy)-4-oxo-6,7-dihydro-4H-pyrimido[6,1-a]isoquinolin-9-yl]-prop-2-ynyl}-urea]
11 | 6.30 to 7.00 | O=c1nc(OCC2COc3ncccc3O2)cc2n1CCc1cc(C#CCN3CCS(=O)(=O)CC3)ccc1-2 (stereo not drawn) [compound 174, 2-(2,3-dihydro-[1,4]dioxino[2,3-b]pyridin-2-ylmethoxy)-9-[3-(1,1-dioxo-thiomorpholin-4-yl)-prop-1-ynyl]-6,7-dihydro-pyrimido[6,1-a]isoquinolin-4-one]
12 | 7.00 to 11.00 | CNC(=O)c1ccc(-c2ccc3c(c2)CCn2c-3cc(OCC3COc4ncccc4O3)nc2=O)cn1 (stereo not drawn) [compound 147, 5-[2-(2,3-dihydro-[1,4]dioxino[2,3-b]pyridin-2-ylmethoxy)-4-oxo-6,7-dihydro-4H-pyrimido[6,1-a]isoquinolin-9-yl]-pyridine-2-carboxylic acid methylamide]
13 | 6.00 to 6.30 | CC(C)C1CC(COc2cc3n(c(=O)n2)CCc2cc(C#CC4CC4)ccc2-3)O1 (stereo not drawn) [compound 203, 9-cyclopropylethynyl-2-(4-isopropyl-oxetan-2-ylmethoxy)-6,7-dihydro-pyrimido[6,1-a]isoquinolin-4-one]
14 | 7.00 to 11.00 | O=c1nc(OCC2COc3ncccc3O2)cc2n1CCc1cc(-c3ccoc3)ccc1-2 (stereo not drawn) [compound 148, 2-(2,3-dihydro-[1,4]dioxino[2,3-b]pyridin-2-ylmethoxy)-9-furan-3-yl-6,7-dihydro-pyrimido[6,1-a]isoquinolin-4-one]

These compounds were tested on human neutrophils (assay: Human neutrophil migration assay (embelin-induced chemotaxis)). Conditions: Neutrophil; neutrophils from human buffy coats; embelin at EC80.
Format: cell-based
Experimental: 2.1. Human Neutrophil Migration Assay
The effect of agonists or antagonists for GPR84 can therefore be assayed in a neutrophil migration test. In the neutrophil migration assay, neutrophils, freshly isolated from buffy coats from human volunteers, are treated with a compound for 30 min Subsequently, the neutrophils are transferred to the upper wells of a Corning HTS transwell 96 permeable support system, of which the lower wells are filled with a embelin solution at EC80 (concentration which gives 80% of the activity of GPR84). After 1 h of incubation, migration of the neutrophils towards embelin in the lower compartment can be quantified by measuring the ATP-content of the lower wells using the ATPlite luminescence ATP detection assay system (Perkin Elmer, Cat. No.: 436110).
2.1.1 Isolation of Neutrophils from Human Buffy Coat
A human buffy coat is diluted with an equal volume of ice cold DPBS. 20 mL of the diluted buffy coat is gently mixed with 4 mL of ACD buffer (140 mM citric acid, 200 mM sodium citrate and 220 mM dextrose). Then, 12 mL of the 6% dextran/0.9% NaCl solution (15 g dextran T2000 and 2.25 g NaCl dissolved in 250 mL H2O) is added to the mixture and the samples are inverted gently up to 20 times. The total volume was transferred to a new recipient and incubated at room temperature for 1 h for complete separation of the two phases to occur. The yellowish supernatant is then transferred to a clean centrifugation tube and centrifuged for 12 min at 1300 rpm and 4° C. After centrifugation, the supernatant is discarded and the remaining cell pellet is rapidly resuspended in 12 mL of ice-cold H2O for red blood cell lysis to occur. After 20 seconds, 4 mL of ice-cold 0.6 M KCl is added. Samples are mixed carefully and centrifuged for 6 min at 1300 rpm, 4° C. The supernatant is discarded and the red blood cell lysis procedure is repeated one more time. Subsequently, the cell pellet is resuspended in 4 mL of DPBS and layered over 5 mL of Lymphoprep (Nycomed Pharma, Cat. No.: 1114545) in a 15 mL centrifuge tube. After centrifugation for 12 min at 1300 rpm, 4° C., the supernatant is removed and the cell pellet, containing the neutrophils, is resuspended in 25 mL chemotaxis buffer (RPMI 1640 medium, supplemented with 10 mM HEPES; freshly made for each experiment)
A cell suspension of 8.9×10^6 cells per milliliter is prepared. 20 μL of compound solution in chemotaxis buffer is added to 180 μL cell suspension. The mixture is incubated at 37° C. for 30 min with intermediate resuspension of the cells after 15 min Following this, 70 μL cell suspension is transferred to the upper compartment of a Corning HTS transwell 96 permeable support system with 5.0 μm pore size polycarbonate membrane (Corning, Cat. No.: 3387). The receiver well of the transwell system is then filled with 200 μL chemotaxis buffer containing compound and chemotactic agent (embelin). After incubation at 37° C. in 5% CO2 for 1 h, the upper plate of the transwell system is removed and the cell suspension in the receiver plate is transferred to a 96-well V-bottom plate. 50 μL of DPBS is added to the receiver plate to prevent remaining cells from drying out. The V-bottom plate is centrifuged for 6 min at 1500 rpm. The supernatant is removed and the cells are resuspended in 50 μL DPBS. The cells are then transferred back to the receiver plate of the transwell system. After this, 100 μL ATPlite solution (Perkin Elmer, Cat. No: 436110) was added to the cells. The plate is incubated for 10 min in the dark, while shaking. […] of cell lysate is then transferred to a white 96-well plate and luminescence is measured. The detected luminescent signal is considered as linearely related to the number of cells having migrated from the upper well to the receiver well.

Row | SMILES | pIC50
15 | N#CCOc1ccc2c(c1)CCn1c-2cc(OCC2COc3ncccc3O2)nc1=O (stereo not drawn) [compound 89, [2-(2,3-dihydro-[1,4]dioxino[2,3-b]pyridin-2-ylmethoxy)-4-oxo-6,7-dihydro-4H-pyrimido[6,1-a]isoquinolin-9-yloxy]-acetonitrile] | 7.00 to 11.00
16 | O=c1nc(OCC2COc3ncccc3O2)cc2n1CCc1cc(OCc3nnn[nH]3)ccc1-2 (stereo not drawn) [compound 93, 2-(2,3-dihydro-[1,4]dioxino[2,3-b]pyridin-2-ylmethoxy)-9-(1H-tetrazol-5-ylmethoxy)-6,7-dihydro-pyrimido[6,1-a]isoquinolin-4-one] | 6.30 to 7.00
17 | O=c1nc(OCC2CCCO2)cc2n1CCc1cc(OCc3cccc([N+](=O)[O-])c3)ccc1-2 (stereo not drawn) [compound 32, 9-(3-nitro-benzyloxy)-2-(tetrahydro-furan-2-ylmethoxy)-6,7-dihydro-pyrimido[6,1-a]isoquinolin-4-one] | 7.00 to 11.00
18 | O=c1nc(OCC2CCCO2)cc2n1CCc1cc(OCc3cccc(-c4cncnc4)n3)ccc1-2 (stereo not drawn) [compound 57, 9-(6-pyrimidin-5-yl-pyridin-2-ylmethoxy)-2-(tetrahydro-furan-2-ylmethoxy)-6,7-dihydro-pyrimido[6,1-a]isoquinolin-4-one] | 6.30 to 7.00

The remaining lines, values ahead:

Row | pIC50 | SMILES
19 | 7.00 to 11.00 | O=c1nc(OC[C@H]2COc3ncccc3O2)cc2n1CCc1cc(OCc3ncco3)ccc1-2 [compound 189]
20 | 7.00 to 11.00 | CC(C)(O)C#Cc1ccc2c(c1)CCn1c-2cc(OCC2COc3ncccc3O2)nc1=O (stereo not drawn) [compound 136, 2-(2,3-dihydro-[1,4]dioxino[2,3-b]pyridin-2-ylmethoxy)-9-(3-hydroxy-3-methyl-but-1-ynyl)-6,7-dihydro-pyrimido[6,1-a]isoquinolin-4-one]
21 | 7.00 to 11.00 | CC(O)C#Cc1ccc2c(c1)CCn1c-2cc(OCC2COc3ncccc3O2)nc1=O (stereo not drawn) [compound 181, 2-(2,3-dihydro-[1,4]dioxino[2,3-b]pyridin-2-ylmethoxy)-9-(3-hydroxy-but-1-ynyl)-6,7-dihydro-pyrimido[6,1-a]isoquinolin-4-one]
22 | 7.00 to 11.00 | CC1(COCc2ccc3c(c2)CCn2c-3cc(OCC3COc4ncccc4O3)nc2=O)COC1 (stereo not drawn) [compound 200, 2-(2,3-dihydro-[1,4]dioxino[2,3-b]pyridin-2-ylmethoxy)-9-(3-methyl-oxetan-3-ylmethoxymethyl)-6,7-dihydro-pyrimido[6,1-a]isoquinolin-4-one]
23 | 7.00 to 11.00 | O=c1nc(OCC2COc3ncccc3O2)cc2n1CCc1cc(CN3CCCCC3)ccc1-2 (stereo not drawn) [compound 199, 2-(2,3-dihydro-[1,4]dioxino[2,3-b]pyridin-2-ylmethoxy)-9-piperidin-1-ylmethyl-6,7-dihydro-pyrimido[6,1-a]isoquinolin-4-one]
24 | 7.00 to 11.00 | O=c1nc(OCC2COc3ncccc3O2)cc2n1CCc1cc(COCCN3CCOCC3)ccc1-2 (stereo not drawn) [compound 192, 2-(2,3-dihydro-[1,4]dioxino[2,3-b]pyridin-2-ylmethoxy)-9-(2-morpholin-4-yl-ethoxymethyl)-6,7-dihydro-pyrimido[6,1-a]isoquinolin-4-one]

Reference: US9708312B2, “Dihydropyrimidinoisoquinolinones and pharmaceutical compositions thereof for the treatment of inflammatory disorders (GPR84 antagonists)” (GALAPAGOS NV, priority 2012, dated 2017)
